ChEMBL document CHEMBL1138700, “3-O-Glutaryl-dihydrobetulin and related monoacyl derivatives as potent anti-HIV agents” (Bioorg Med Chem Lett, 2004)

Columns and labels:
[1] = system: Human immunodeficiency virus 1; test: Concentration required to inhibit 50% of HIV-1 (human immunodeficiency virus-1) replication; No suppression at concentrations up to 100 ug/mL.; type: functional, organism-based
H9 = test: Concentration required to produce 50% toxicity against mock-infected H9 cells; type: functional, cell-based; settings: Homo sapiens
[2] = system: Human immunodeficiency virus 1; test: Concentration required to inhibit 50% of HIV-1 (human immunodeficiency virus-1) replication; type: functional, organism-based
[3] = Therapeutic index expressed as ratio of IC50 for 50% toxicity to EC50 for 50% inhibition; type: cell-based; settings: human, H9 cells; read-out: TI

| SMILES | EC50 [1] | IC50 (H9) | EC50 [2] | selectivity ratio [3] |
| --- | --- | --- | --- | --- |
| C=C(C)[C@@H]1CC[C@]2(CO)CC[C@]3(C)[C@H](CC[C@@H]4[C@@]5(C)CC[C@H](OC(=O)CCC(=O)O)C(C)(C)[C@@H]5CC[C@]43C)[C@@H]12 | No suppression | 26000 nM | – | – |
| CC(C)[C@@H]1CC[C@]2(CO)CC[C@]3(C)[C@H](CC[C@@H]4[C@@]5(C)CC[C@H](OC(=O)CCCC(=O)O)C(C)(C)[C@@H]5CC[C@]43C)[C@@H]12 | – | 23600 nM | 0.02 nM | 1.12e+06 |
| C=C(C)[C@@H]1CC[C@]2(CO)CC[C@]3(C)[C@H](CC[C@@H]4[C@@]5(C)CC[C@H](OC(=O)CC(C)(C)C(=O)O)C(C)(C)[C@@H]5CC[C@]43C)[C@@H]12 | – | 33500 nM | 5.6 nM | 5970 |
| C=C(C)[C@@H]1CC[C@]2(CO)CC[C@]3(C)[C@H](CC[C@@H]4[C@@]5(C)CC[C@H](OC(=O)CC(C)(C)CC(=O)O)C(C)(C)[C@@H]5CC[C@]43C)[C@@H]12 | – | 28900 nM | 4.4 nM | 6570 |
| CC(C)[C@@H]1CC[C@]2(CO)CC[C@]3(C)[C@H](CC[C@@H]4[C@@]5(C)CC[C@H](OC(=O)CC(C)(C)CC(=O)O)C(C)(C)[C@@H]5CC[C@]43C)[C@@H]12 | – | 25700 nM | 1.3 nM | 19500 |
| C=C(C)[C@@H]1CC[C@]2(CO)CC[C@]3(C)[C@H](CC[C@@H]4[C@@]5(C)CC[C@H](OC(=O)CCCC(=O)O)C(C)(C)[C@@H]5CC[C@]43C)[C@@H]12 | – | 44400 nM | 60 nM | 670 |
| CC(C)[C@@H]1CC[C@]2(CO)CC[C@]3(C)[C@H](CC[C@@H]4[C@@]5(C)CC[C@H](OC(=O)CC(C)(C)C(=O)O)C(C)(C)[C@@H]5CC[C@]43C)[C@@H]12 | – | 27000 nM | 1.7 nM | 16200 |
| C=C(C)[C@@H]1CC[C@]2(COC(=O)CC(C)(C)CC(=O)O)CC[C@]3(C)[C@H](CC[C@@H]4[C@@]5(C)CC[C@H](OC(=O)CC(C)(C)CC(=O)O)C(C)(C)[C@@H]5CC[C@]43C)[C@@H]12 | – | – | 0.66 nM | 21500 |
| C=C(C)[C@@H]1CC[C@]2(COC(=O)C(C)(C)CC(=O)O)CC[C@]3(C)[C@H](CC[C@@H]4[C@@]5(C)CC[C@H](OC(=O)CC(C)(C)C(=O)O)C(C)(C)[C@@H]5CC[C@]43C)[C@@H]12 | – | – | 0.87 nM | 42400 |
| C=C(C)[C@@H]1CC[C@]2(CO)CC[C@]3(C)[C@H](CC[C@@H]4[C@@]5(C)CC[C@H](OC(=O)COCC(=O)O)C(C)(C)[C@@H]5CC[C@]43C)[C@@H]12 | – | > 44800 nM | 20 nM | > 1820 |
| C=C(C)[C@@H]1CC[C@]2(C(=O)O)CC[C@]3(C)[C@H](CC[C@@H]4[C@@]5(C)CC[C@H](O)C(C)(C)[C@@H]5CC[C@]43C)[C@@H]12 [BETULINIC ACID] | – | – | 1400 nM | 9.2 |
| C=C(C)[C@@H]1CC[C@]2(C(=O)O)CC[C@]3(C)[C@H](CC[C@@H]4[C@@]5(C)CC[C@H](OC(=O)CC(C)(C)C(=O)O)C(C)(C)[C@@H]5CC[C@]43C)[C@@H]12 [BEVIRIMAT] | – | – | < 0.35 nM | > 20000 |
| Cc1cn([C@H]2C[C@H](N=[N+]=[N-])[C@@H](CO)O2)c(=O)[nH]c1=O [ZIDOVUDINE] | – | – | 6.2 nM | – |
